Assay results: publication PMC3789947, “Mechanism for Recognition of an Unusual Mycobacterial Glycolipid by the Macrophage Receptor Mincle” (The Journal of Biological Chemistry, 2013)

How the values were obtained:
bovine mincle CRD [1] = target: T1, bovine mincle CRD (Bos taurus, UniProt E1BHM0, I174T); assay: competition with […]-Man31-BSA on immobilized biotin-tagged CRD; type: binding; settings: pH 7.8, 1.5 M NaCl, 2.5 mM CaCl2, 4 °C
T1 construct: gene CLEC4E; C-type carbohydrate recognition domain, residues 78-211
T1 sequence (E1BHM0 78-211 I174T): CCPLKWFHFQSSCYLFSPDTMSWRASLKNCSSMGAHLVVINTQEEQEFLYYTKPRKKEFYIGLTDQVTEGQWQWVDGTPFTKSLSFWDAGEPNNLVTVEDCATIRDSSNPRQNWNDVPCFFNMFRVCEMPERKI

bovine mincle CRD [2] = target: T1, bovine mincle CRD; assay: as above; type: binding
[3] = reported as KI(trehalose)/KI(acyltrehalose) ratio

CCCC(=O)OC[C@H]1O[C@H](O[C@H]2O[C@H](CO)[C@@H](O)[C@H](O)[C@H]2O)[C@H](O)[C@@H](O)[C@@H]1O [mono-n-butanoyl derivative of trehalose]
KI (bovine mincle CRD [1]; [3]): the mono-n-butanoyl derivative showed enhanced affinity compared with trehalose

CC(=O)OC[C@H]1O[C@H](O[C@H]2O[C@H](COC(C)=O)[C@@H](O)[C@H](O)[C@H]2O)[C@H](O)[C@@H](O)[C@@H]1O [trehalose acetylated at the two 6-OH groups]
KI (bovine mincle CRD [1]; [3]): acetylation at the two 6-OH groups is tolerated

CCCCCCCC(=O)OC[C@H]1O[C@H](O[C@H]2O[C@H](CO)[C@@H](O)[C@H](O)[C@H]2O)[C@H](O)[C@@H](O)[C@@H]1O [mono-octanoyl trehalose]
Ki (bovine mincle CRD [2]): 58 ± 8 µM

CO[C@H]1O[C@H](CO)[C@@H](O)[C@H](O)[C@H]1O [α-methyl glucoside]
KI (bovine mincle CRD [1]): The mean ratio of KI values for α-methyl glucoside and trehalose
